Measurements reported in patent publication US20240335395A1, “COMPOSITIONS AND METHODS FOR PREVENTING AND/OR TREATING DISEASE ASSOCIATED WITH IL-23 EXPRESSION” (ALLSPIM, priority 2021, published 2024).

Tests used:
[1] = system: MSU-induced leukocyte recruitment; assay: MSU-induced leukocyte recruitment to the synovial cavity of knee joint; type: in vivo, mouse; settings: 20 h; 2,4-D 100 mg/kg, CLC 1 mg/kg, DEX 0.5 mg/kg
Experimental: (§1) 2,4-D, isolated and purified from Chloranthus spicatus (purity≥98%), was purchased from BOC Science (Shirley, NY). Colchicine (CLC) (purity≥96%) and dexamethasone (DEX) (purity≥98%) were purchased from Sigma. Mice (six per group) were treated with 2,4-D (100 mg/kg or 20 mg/kg, i.p.), CLC (1 mg/kg or 0.2 mg/kg, i.p.), DEX (0.5 mg/kg or 0.1 mg/kg, i.p.), or vehicle (20% polyoxyethylenesorbitan monooleate (Tween 80) plus PBS) 30 min before intra-articular stimulus with MSU (100 μg/10 μL, i.a.). Six mice with intra-articular injection with PBS alone served as a negative control.
(§2) Induction of MSU-Induced Knee Joint Inflammation. Male ICR (CD-1) mice (35-45 g, 10-12 weeks) were purchased from VitalRiver Inc (Beijing, China) and were kept in an animal care facility under controlled temperature of 21±1° C., humidity, and on a light/dark cycle, with ad libitum access to water and standard laboratory chow diet. Animal care and handling procedures were approved by the Animal Ethics Committee of GZUCM (Guangzhou University of Chinese Medicine). All efforts were made to minimize animal suffering and to reduce the number of animals used. Joint inflammation was induced by the intra-articular (i.a.) administration of MSU (200 μg/20 μl) into the right and left knee joints of mice under inhaled 3% isoflurane anesthesia. Control animals received an injection (i.a.) of sterile PBS (20 μL).
Histopathological Analysis. Knee joint was collected 20 h after MSU injection, fixed with 10% paraformaldehyde in PBS, and then decalcified for 10 days with EDTA and embedded in paraffin for histological analysis. […] Results are expressed as leukocytes infiltrate (cell/field) counted at the inflammatory foci within synovial cavity as indicative of synovitis. […]
Statistical Analysis. Data were analyzed using GraphPad Prism statistical software (GraphPad Software, Inc., United States-500.288, version 5.0). Results are presented as means±SEM or SD of measurements made on 6 mice per group, with statistical significance determined by two-way ANOVA, comparing each group to the control (“Model”) group. […]

IL-6 = assay: MSU-induced IL-6 in knee joint tissue (multiplex microassay); type: in vivo, mouse; settings: 2,4-D 100 mg/kg, CLC 1 mg/kg, DEX 0.5 mg/kg
Experimental: (§3) Mice (six per group) were treated with 2,4-D (100 mg/kg or 20 mg/kg, i.p.), CLC (1 mg/kg or 0.2 mg/kg, i.p.), DEX (0.5 mg/kg or 0.1 mg/kg, i.p.), or vehicle (20% polyoxyethylenesorbitan monooleate (Tween 80) plus PBS) 30 min before intra-articular stimulus with MSU (100 μg/10 μL, i.a.). Six mice with intra-articular injection with PBS alone served as a negative control.
as §2
(§4) Cytokine Measurement. Mice were anesthetized and sacrificed. Knee joints were collected and frozen in liquid nitrogen. Samples were then homogenized in 500 μl of buffer containing protease inhibitors, centrifuged (3600 rpm, 4° C., 15 min) and supernatants were used to determine Th1/Th2/Th17 cytokine levels using a multiplex microassay (Qantibody® mouse TH17 Array 1 kit, Cat. No.: QAM-TH17-1; RayBiotech, Norcross, GA). Results were expressed as picograms (pg) of cytokine/mg of tissue.
(§5) Statistical Analysis. […] For in vitro experiments, microassays were performed in quadruplicate. p<0.05 was considered significant (*p<0.05, **p<0.01, ***p<0.001).

TNF-alpha = assay: MSU-induced TNF-alpha in knee joint tissue (multiplex microassay); type: in vivo, mouse; settings: 2,4-D 100 mg/kg, CLC 1 mg/kg, DEX 0.5 mg/kg
Experimental: as §3, §2, §4, §5

IL-1ß = assay: MSU-induced IL-1ß in knee joint tissue (multiplex microassay); type: in vivo, mouse; settings: 2,4-D 100 mg/kg, CLC 1 mg/kg, DEX 0.5 mg/kg
Experimental: as §3, §2, §4, §5

[2] = system: MSU-induced knee joint edema; assay: MSU-induced knee joint edema in mice; type: in vivo, mouse; settings: 20 h
Experimental: as §1
Preparation of monosodium urate crystal (MSU). MSU crystals were prepared as described previously (Ruiz-Miyazawa et al., 2017). Briefly, 800 mg of monosodium urate was dissolved in 155 ml of boiling milli-Q water containing 2N NaOH. After pH adjustment to 8.9, the solution was cooled gradually by stirring at room temperature and crystallized overnight at 4° C. Crystals were collected, and centrifuged at 3,000×g for 2 min at 4° C. The crystals were evaporated and sterilized by heating at 180° C. for 2 h and stored in a sterile environment until use. The load of endotoxin present in the MSU crystals was determined using a ToxinSensor^TM Single Test Kit (GenScript).
as §2
Evaluation of Knee Joint Edema. Knee joint edema was determined with a caliper (Mitutoyo) before (zero time), and after the intra-articular injection with MSU at the times indicated. Knee joint edema was determined for each mouse by the difference between the time points indicated on figures and the zero time (Ruiz-Miyazawa et al, 2017). The edema value is represented as Amm/joint.
Statistical Analysis. Data were analyzed using GraphPad Prism statistical software (GraphPad Software, Inc., United States-500.288, version 5.0). Results are presented as means±SEM or SD of measurements made on 6 mice per group, with statistical significance determined by two-way ANOVA, comparing each group to the control (“Model”) group. For in vitro experiments, microassays were performed in quadruplicate. p<0.05 was considered significant (*p<0.05, **p<0.01, ***p<0.001).

[3] = system: IL-17/IL-23 and TNF signature cytokines and chemokines; assay: Release of IL-17/IL-23 and TNF signature cytokines and chemokines into supernatant of LPS-stimulated THP-1 cells (ELISA); type: cell-based, human; settings: 24 h
Experimental: (§6) Sample Collection and Preparation. THP-1 cells, a human leukemia monocyte-derived cell line, have been widely used as a model to study the modulation of the immune response and the function of monocytes and monocyte-derived macrophages. Here, lipopolysaccharide (LPS)-stimulated THP-1 cells were used as a model to study the cytokine storm in vitro (Chanput et al., 2014). THP-1 cells (purchased from American Type Culture Collection, Rockville, MD) were grown in RPMI 1640 culture medium (Gibco) supplemented with 10% fetal bovine serum (FBS) (Gibco, UK), 0.05 mM 2-mercaptoethanol, and 1% penicillin/streptomycin (Invitrogen) at 37° C. in 5% CO2 in a humidified incubator. Cultured cells were plated into culture plates in appropriate volumes with a cell density of 5×10^5 cells/ml. 2,4-D was purchased from Wuhan ChemFaces Biochemical Co., Ltd (Hubei, China) and tested for cytotoxicity in THP-1 cells overnight using a commercial MTT Cell Proliferation and Cytotoxicity Assay Kit (Beyotime, Shanghai, China). […]
ELISA. […] Culture supernatants were measured according to the manufacturer's instructions. A Varioskan LUX microplate reader (Thermo Fisher, USA) was used for the assay and 4-parameter logistic regression was used for data analysis. […] Data are expressed as mean±SD. […]

IL-10 = assay: MSU-induced IL-10 in knee joint tissue (multiplex microassay); type: in vivo, mouse; settings: 2,4-D 100 mg/kg, DEX 0.5 mg/kg
Experimental: as §3, §2, §4, §5

[4] = system: IL-17/IL-23 and TNF signaling pathway-associated cytokine genes and chemokine genes; assay: Transcription of IL-17/IL-23 and TNF signature genes in LPS-stimulated THP-1 cells (qPCR); type: cell-based, human; settings: 2 h; RPM 5-20 μM
Experimental: as §6
Real-Time Quantitative PCR. Real-time quantitative PCR was performed in triplicate using the TB Green qPCR master mix (Takara Biomedical Technology Co., Ltd, Dalian, China) on an ABI 7500 Real-Time PCR System (Thermo, USA). […] The ΔΔCT method was used to quantify relative mRNA levels as described above in Example 1 (Applied Biosystems). Data are expressed as mean±SD. […]

Compound | reduction of MSU-induced leukocyte recruitment [1] | decrease of IL-6 in knee joint tissue (IL-6) | decrease of TNF-alpha in knee joint tissue (TNF-alpha) | decrease of IL-1ß in knee joint tissue (IL-1ß) | reduction of MSU-induced knee joint edema ([2]; high dose i.p.: 2,4-D 100 mg/kg, CLC 1 mg/kg, DEX 0.5 mg/kg) | reduction of MSU-induced knee joint edema ([2]; low dose i.p.: 2,4-D 20 mg/kg, DEX 0.1 mg/kg) | reduction of release of IL-10, CCL2/MCP-1, CCL3/MIP-1alpha and CCL20/MIP-3alpha ([3]; DEX) | decrease of IL-10 in knee joint tissue (IL-10) | inhibition at 20 µM ([3]; Homo sapiens, THP-1, 20 μM, read-out: inhibition of release of IL-1ß, IL-10, TNF-alpha, CCL2/MCP-1, CCL3/MIP-1alpha and CCL20) | inhibition of transcription of Tnf, Il1ß, Ccl2 and Ccl3 [4]
C[C@@H]1C[C@H]2[C@@H]3CCC4=CC(=O)C=C[C@]4(C)[C@@]3(F)[C@@H](O)C[C@]2(C)[C@@]1(O)C(=O)CO [DEX, dexamethasone] | 2.2 fold | no effect | 2.0 fold | 1.9 fold | 38.9% | 16.8% | 50-90% | 1.5 fold | – | –
CO[C@H]1C[C@@H]2CC[C@@H](C)[C@@](O)(O2)C(=O)C(=O)N2CCCC[C@H]2C(=O)O[C@H]([C@H](C)C[C@@H]2CC[C@@H](O)[C@H](OC)C2)CC(=O)[C@H](C)/C=C(\C)[C@@H](O)[C@@H](OC)C(=O)[C@H](C)C[C@H](C)/C=C/C=C/C=C/1C [Rapamycin, rapamycin, reference compound] | – | – | – | – | – | – | – | – | < 50% | ≤ 50 fold
